Columns and labels:
HEK293 = assay: Cytotoxicity against HEK293 cells assessed as reduction in cell viability at 100 to 8000 nM incubated for 24 hrs by MTT assay; assay type: toxicity, cell-based; details: human, hek293, 24 h, 8 µM, dose 100-8000 nM
[1] = Toxicity in Swiss albino mouse assessed as reduction in body weight at 10 mg/kg, po measured for 15 days; assay type: organism-based; details: in vivo, 360 h, time 15 day
[2] = Toxicity in Zebra fish assessed as change in body weight at 10 mg/kg measured after 10 days; assay type: organism-based, Danio rerio; details: zebrafish, in vivo, 240 h, time 10 day
[3] = target: T1, Peroxisome proliferator-activated receptor gamma (Homo sapiens, UniProt P37231); assay: Agonist activity at PPARgamma in HEK293 cells assessed as transactivation incubated for 5 to 10 mins by microplate reader analysis; assay type: cell-based
T1 sequence (P37231 whole entry): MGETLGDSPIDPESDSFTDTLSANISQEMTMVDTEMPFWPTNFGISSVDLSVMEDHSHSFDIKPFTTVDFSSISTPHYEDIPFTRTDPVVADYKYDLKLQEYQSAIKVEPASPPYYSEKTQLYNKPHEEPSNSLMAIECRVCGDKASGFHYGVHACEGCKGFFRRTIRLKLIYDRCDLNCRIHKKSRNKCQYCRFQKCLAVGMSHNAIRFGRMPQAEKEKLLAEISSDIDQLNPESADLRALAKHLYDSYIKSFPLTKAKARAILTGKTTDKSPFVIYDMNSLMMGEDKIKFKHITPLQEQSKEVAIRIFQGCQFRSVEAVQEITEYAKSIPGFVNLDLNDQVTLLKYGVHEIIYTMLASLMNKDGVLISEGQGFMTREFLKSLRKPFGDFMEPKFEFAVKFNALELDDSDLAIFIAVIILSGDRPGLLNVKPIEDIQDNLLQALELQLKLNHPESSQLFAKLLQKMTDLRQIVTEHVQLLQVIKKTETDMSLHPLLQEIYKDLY

Mus musculus [4] = assay: Antidiabetic activity in STZ-induced Swiss albino diabetic mouse model assessed as blood glucose levels at 36 mg/kg, po measured on day 1,3,5,7 and 15 by glucometer; assay type: functional; details: time 15 day
Mus musculus [5] = assay: Antidiabetic activity in STZ-induced Swiss albino diabetic mouse model assessed as blood glucose levels at 36 mg/kg, po measured immediately by oral glucose tolerance test (reference value: 234.5 mg/dl); assay type: functional
Mus musculus [6] = assay: Antidiabetic activity in STZ-induced Swiss albino diabetic mouse model assessed as blood glucose levels at 36 mg/kg, po measured after 30 mins by oral glucose tolerance test (reference value: 213.5 mg/dl); assay type: functional; details: 0.5 h
Mus musculus [7] = assay: Antidiabetic activity in STZ-induced Swiss albino diabetic mouse model assessed as blood glucose levels at 36 mg/kg, po measured after 60 mins by oral glucose tolerance test (reference value: 199.16 mg/dl); assay type: functional; details: 1 h
Mus musculus [8] = assay: Antidiabetic activity in STZ-induced Swiss albino diabetic mouse model assessed as blood glucose levels at 36 mg/kg, po measured after 120 mins by oral glucose tolerance test; assay type: functional; details: 2 h
[9] = Toxicity in Swiss albino mouse assessed as reduction in body weight at 36 mg/kg, po measured for 15 days; assay type: organism-based; details: in vivo, 360 h, time 15 day
Mus musculus [10] = assay: Antidiabetic activity in STZ-induced Swiss albino diabetic mouse model assessed as reduction in LDL level in serum at 36 mg/kg, po (reference value: 61.83 +/- 4.08 mg/dl); assay type: functional
Mus musculus [11] = assay: Antidiabetic activity in STZ-induced Swiss albino diabetic mouse model assessed as reduction in triglyceride level in serum at 36 mg/kg, po (reference value: 131.83 +/- 12.12 mg/dl); assay type: functional
Mus musculus [12] = assay: Antidiabetic activity in STZ-induced Swiss albino diabetic mouse model assessed as increase in HDL level in serum at 36 mg/kg, po (reference value: 26 +/- 4.83 mg/dl); assay type: functional
Mus musculus [13] = assay: Antidiabetic activity in STZ-induced Swiss albino diabetic mouse model assessed as increase in total cholesterol level in serum at 36 mg/kg, po (reference value: 51.16 +/- 6.89 mg/dl); assay type: functional
Danio rerio = assay: Antidiabetic activity in STZ-induced Zebra fish diabetic model assessed as blood glucose level at 36 mg/kg measured after 10 days; assay type: functional; details: time 10 day

Structure (SMILES)	Activity (HEK293)	EC50 [3] [nM]	also measured
Cc1ccc(CN2C(=O)S/C(=C\c3ccc(Nc4cccc(Cl)c4)s3)C2=O)cc1	Non-Toxic	–	Activity [1]: Non-Toxic; Activity [2]: Non-Toxic
Cc1ccc(CN2C(=O)S/C(=C\c3ccc(Nc4ccc([N+](=O)[O-])cc4)s3)C2=O)cc1	Non-Toxic	1550	–
Cc1ccc(CN2C(=O)S/C(=C\c3ccc(Oc4ccc5ccccc5c4)s3)C2=O)cc1	Non-Toxic	3570	–
COc1cccc(CN2C(=O)S/C(=C\c3ccc(Nc4ccc(Cl)cc4)cc3)C2=O)c1	Non-Toxic	–	–
Cc1ccc(CN2C(=O)S/C(=C\c3ccc(Oc4ccc([N+](=O)[O-])cc4)s3)C2=O)cc1	Non-Toxic	1540	–
Cc1ccc(CN2C(=O)S/C(=C\c3ccc(Nc4ccccc4Cl)s3)C2=O)cc1	Non-Toxic	–	Activity [2]: Non-Toxic
Cc1ccc(CN2C(=O)S/C(=C\c3ccc(Nc4ccc(Cl)cc4)cc3)C2=O)cc1	Non-Toxic	1360	–
Cc1ccc(CN2C(=O)S/C(=C\c3ccc(Nc4ccc(Cl)cc4)s3)C2=O)cc1	Non-Toxic	1470	–
Cc1ccc(CN2C(=O)S/C(=C\c3ccc(OCc4ccccc4)s3)C2=O)cc1	Non-Toxic	2010	–
COc1cccc(CN2C(=O)S/C(=C\c3ccc(Nc4cccc(Cl)c4)cc3)C2=O)c1	Non-Toxic	–	–
Cc1ccc(CN2C(=O)S/C(=C\c3ccc(Nc4ccccc4[N+](=O)[O-])s3)C2=O)cc1	Non-Toxic	–	–
Cc1ccc(CN2C(=O)S/C(=C\c3ccc(Oc4ccccc4)s3)C2=O)cc1	Non-Toxic	2740	–
CCc1ccc(CCOc2ccc(CC3SC(=O)NC3=O)cc2)nc1 (centres undefined) [PIOGLITAZONE]	Non-Toxic	–	Activity (Mus musculus [4]): 132.2 mg/dL; Activity (Mus musculus [5]): 234.8 mg/dL; Activity (Mus musculus [6]): 214.16 mg/dL; Activity (Mus musculus [7]): 150.83 mg/dL; Activity (Mus musculus [8]): 112 mg/dL; Activity [9]: Non-Toxic; Activity (Mus musculus [10]): 30.16 mg/dL; Activity (Mus musculus [11]): 52 mg/dL; Activity (Mus musculus [12]): 26 mg/dL; Activity (Mus musculus [13]): 51.16 mg/dL; Activity (Danio rerio): 112 mg/dL

Source: ChEMBL document CHEMBL5634122, “Integrated fragment-based drug design and virtual screening techniques for exploring the antidiabetic potential of thiazolidine-2,4-diones: Design, synthesis and in vivo studies” (Eur J Med Chem, 2023)
